In patent publication US11964988B2, “Fused heterocyclic compounds as RET kinase inhibitors” (ARRAY BIOPHARMA INC., priority 2018, dated 2024):
Residue numbers refer to the chain shown, from its start.

Legend:
RET kinase V804M = RET kinase V804M (Homo sapiens, UniProt P07949, V804M); test: RET Enzyme Assay (CisBio HTRF KinEASE-TK), V804M; format: biochemical; details: read-out: RET V804M Enz FRET IC50
[1] = molecular target: T1, HEK-293 cells expressing a Kif5b-RET fusion protein (Homo sapiens, UniProt P07949); test: RET Cell Assay (phospho-RET Tyr1062); format: cell-based; details: HEK-293 Kif5b-RET, 1 hour incubation, phospho-RET normalized to GAPDH; read-out: KIF5B-RET pTYR1062 Cell IC50
T1 construct: KIF5B (N-terminal portion incl. coiled-coil); expressed in transfected cells; host or cells: HEK-293; the other entry of the earlier key: KIF5B (P33176, Kinesin-1 heavy chain)
T1 sequence (P07949 713-1063 limits assumed): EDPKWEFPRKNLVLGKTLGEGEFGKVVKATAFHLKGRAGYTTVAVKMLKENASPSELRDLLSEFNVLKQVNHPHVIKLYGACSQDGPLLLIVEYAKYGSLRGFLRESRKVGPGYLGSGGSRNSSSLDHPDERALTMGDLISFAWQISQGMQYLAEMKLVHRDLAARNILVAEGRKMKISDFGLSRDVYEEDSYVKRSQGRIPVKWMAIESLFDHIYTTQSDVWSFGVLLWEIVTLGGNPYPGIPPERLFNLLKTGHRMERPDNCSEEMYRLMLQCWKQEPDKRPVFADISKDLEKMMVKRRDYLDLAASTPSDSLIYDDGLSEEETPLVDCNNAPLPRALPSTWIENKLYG
Method: (§1) The cellular potency of compounds inhibiting RET kinase were determined in HEK-293 cells expressing a Kif5b-RET fusion protein. Briefly, HEK-293 cells expressing a Kif5b-RET fusion protein were plated at 50K cells/well in 96 well poly-D-Lysine coated plates the day prior to the assay. The cells were incubated for 1 hour with test compound in DMEM (Dulbecco's Modified Eagle Medium) at a final DMSO concentration of 0.5%. […] After 1 hour the media was removed, the cells were fixed with 3.8% formaldehyde for 20 min, washed with PBS, and permeabilized for 10 min with 100% methanol. The plates were then washed with PBS-0.05% Tween20, and blocked with LI-COR Blocking solution (LI-COR Catalog No. 927-40000) for 1 hour. Plates were washed with PBS-0.05% Tween20, then incubated with anti-phospho-RET (Tyr1062) (Santa Cruz Catalog No. sc-20252-R) antibody and anti-GAPDH (Millipore Catalog No. MAB374) antibody for 2 hours. The plates were washed with PBS-0.05% Tween20, and incubated with anti-rabbit 680 (Molecular Probes Catalog No. A21109) and anti-mouse 800 (LI-COR Catalog No. 926-32210) secondary antibodies for 1 hour. All antibodies were diluted in LI-COR Block containing 0.05% Tween. The plates were washed with PBS-0.05% Tween20,100 μL PBS is added to each well, and the plates were read on a LI-COR Aerius fluorescent plate reader. The phospho-RET signal was normalized to the GAPDH signal. […] The POC values were fit to a 4 parameter logistic curve. The IC50 value is the point where the curve crosses 50 POC.

[2] = molecular target: T2, HEK-293 cells expressing a G810R mutant RET Kif5b-RET fusion protein (Homo sapiens, UniProt P07949, G810R); test: RET G810R Mutant Cell Assay (phospho-RET Tyr1062); format: cell-based; details: HEK-293 Kif5b-RET G810R, 1 hour incubation, phospho-RET normalized to GAPDH
T2 construct: KIF5B (N-terminal portion incl. coiled-coil); expressed in transfected cells; host or cells: HEK-293; the other entry of the earlier key: KIF5B (P33176, Kinesin-1 heavy chain)
T2 sequence (P07949 713-1063 G810R limits assumed): T1 sequence (P07949 713-1063 limits assumed) with G98R
Method: as §1, with “expressing a G810R or G810S mutant RET Kif5b-RET fusion” for “expressing a Kif5b-RET fusion”, “μL PBS was added to” for “μL PBS is added to”, “POC values are fit to” for “POC values were fit to”

RET kinase Wild Type = RET kinase Wild Type (Homo sapiens, UniProt P07949); test: biochemical;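 further: HTRF kinase activity assay on RET enzyme, 1 h reaction at 22 °C, dual-wavelength readout as percent of control, DMSO-only wells as 100%, pre-quenched reactions as 0%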
G810R mutant RET kinase = G810R mutant RET kinase (Homo sapiens, UniProt P07949, G810R); test: biochemical;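 further: HTRF KinEASE-TK enzymatic assay with 1 nM recombinant RET G810R, 1 h at 22 °C, dual-wavelength ratiometric readout, 100% control without compound, 0% from pre-quenched reactions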
Method: (§2) The potency of compounds inhibiting several different RET kinase forms (Wild Type, V804M, G810R, & G810S) were determined using CisBio's HTRF® KinEASE™-TK assay technology. […] After a 1 hour incubation at 22° C., the extent of reaction was determined using a PerkinElmer EnVision multimode plate reader via HTRF dual wavelength detection, and the percent of control (POC) was calculated using a ratiometric emission factor. One hundred POC was determined using DMSO only samples (no compound present), and 0 POC was determined using pre-quenched control reactions.
(§3) The potency of a compound inhibiting G810R or G810S mutant RET kinase was determined using CisBio's HTRF® KinEASE™-TK assay technology. The assays contained G810R or G810S mutant RET produced at Array Biopharma, Inc. (1 nM enzyme). […] After a 1-h incubation at 22° C., the extent of reaction was determined using a PerkinElmer EnVision multimode plate reader via HTRF dual wavelength detection, and the percent of control (POC) was calculated using a ratiometric emission factor. One hundred POC was determined using no test compounds, and 0 POC was determined using pre-quenched control reactions.

G810S mutant RET kinase = G810S mutant RET kinase (Homo sapiens, UniProt P07949, G810S); test: biochemical;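 further: HTRF KinEASE-TK kinase assay with recombinant enzyme, 1 h at 22 °C, dual-wavelength ratiometric read-out, percent of control (DMSO-only = 100, pre-quenched reaction = 0)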
G810S mutant RET kinase, sequence (P07949 29-1114 G810S): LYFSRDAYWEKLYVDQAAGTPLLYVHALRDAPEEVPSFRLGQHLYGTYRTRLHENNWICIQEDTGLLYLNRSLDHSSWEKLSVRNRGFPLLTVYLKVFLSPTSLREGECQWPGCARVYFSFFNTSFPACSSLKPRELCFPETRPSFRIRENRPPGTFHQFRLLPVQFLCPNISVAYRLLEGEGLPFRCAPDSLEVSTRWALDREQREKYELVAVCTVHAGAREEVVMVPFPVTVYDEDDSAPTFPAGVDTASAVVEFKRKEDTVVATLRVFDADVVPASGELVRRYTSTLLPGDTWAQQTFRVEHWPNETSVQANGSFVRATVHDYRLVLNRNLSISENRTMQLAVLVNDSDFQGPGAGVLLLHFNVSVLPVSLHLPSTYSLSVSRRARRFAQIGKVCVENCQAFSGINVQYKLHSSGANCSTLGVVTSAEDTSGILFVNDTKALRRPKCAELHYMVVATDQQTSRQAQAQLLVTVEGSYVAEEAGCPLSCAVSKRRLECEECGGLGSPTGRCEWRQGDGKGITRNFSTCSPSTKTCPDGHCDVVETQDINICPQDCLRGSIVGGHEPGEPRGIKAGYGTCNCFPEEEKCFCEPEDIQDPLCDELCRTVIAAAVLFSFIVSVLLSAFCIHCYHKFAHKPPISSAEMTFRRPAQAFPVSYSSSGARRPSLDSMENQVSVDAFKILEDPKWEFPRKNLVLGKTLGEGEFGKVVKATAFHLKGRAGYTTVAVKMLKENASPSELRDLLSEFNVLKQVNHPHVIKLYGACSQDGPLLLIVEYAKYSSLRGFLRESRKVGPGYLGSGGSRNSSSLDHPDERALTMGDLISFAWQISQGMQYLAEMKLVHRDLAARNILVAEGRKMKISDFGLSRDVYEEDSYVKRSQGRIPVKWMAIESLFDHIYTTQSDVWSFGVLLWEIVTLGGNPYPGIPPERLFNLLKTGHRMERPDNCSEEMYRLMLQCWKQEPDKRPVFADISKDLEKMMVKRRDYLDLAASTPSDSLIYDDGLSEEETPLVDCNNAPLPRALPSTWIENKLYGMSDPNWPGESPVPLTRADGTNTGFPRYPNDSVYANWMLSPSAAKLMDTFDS
Method: as §2, §3

RET kinase V804M, sequence (P07949 29-1114 V804M): as the sequence (P07949 29-1114 G810S) above, with V776M, S782G counted along it
RET kinase Wild Type, sequence (P07949 29-1114): as the sequence (P07949 29-1114 G810S) above, with S782G counted along it
G810R mutant RET kinase, sequence (P07949 29-1114 G810R): as the sequence (P07949 29-1114 G810S) above, with S782R counted along it

Compound	IC50 (RET kinase V804M) [nM]	IC50 [1] [nM]	IC50 [2] [nM]	IC50 (RET kinase Wild Type) [nM]	IC50 (G810R mutant RET kinase) [nM]	IC50 (G810S mutant RET kinase) [nM]
CC(C)n1c2c(c3c(N)ncnc31)-c1cc3ccccc3n1C(=O)NC2 [Example 69, 1-amino-5-isopropyl-6,7-dihydropyrimido[5″,4″:4′,5′]pyrrolo[2′,3′:5,6][1,3]diazepino[1,7-a]indol-8(5H)-one]	–	103	394	34	47	65
CC(C)n1c2c(c3c(N)ncnc31)-c1cc3ccccc3n1C(=O)CC2 [Example 68, 1-amino-5-isopropyl-6,7-dihydropyrimido[5″,4″:4′,5′]pyrrolo[3′,2′:3,4]azepino[1,2-a]indol-8(5H)-one]	–	1780	4750	386	485	1160
Cc1cc2n(n1)C(=O)NCc1c-2c2c(N)ncnc2n1C(C)C [Example 105, 12-amino-8-isopropyl-2-methyl-7,8-dihydropyrazolo[1,5-c]pyrimido[5′,4′:4,5]pyrrolo[3,2-e][1,3]diazepin-5(6H)-one 2,2,2-trifluoroacetate]	–	1360	15500	639	742	2580
Nc1ncnc2c1c1c(n2[C@H]2C[C@@H](CO)C2)CCC(O)c2c-1noc2C1CC1 (stereo partly shown) [Example 136, 11-Amino-3-cyclopropyl-7-((1s,3s)-3-(hydroxymethyl)cyclobutyl)-4,5,6,7-tetrahydroisoxazolo[4″,3″:6′,7′]cyclohepta[1′,2′:4,5]pyrrolo[2,3-d]pyrimidin-4-ol 2,2,2-trifluoroacetate]	551	–	–	201	274	817
Nc1ncnc2[nH]c3c(c12)-c1noc(C2CC2)c1C(=O)CC3 [Example 111, 11-amino-3-cyclopropyl-6,7-dihydroisoxazolo[4″,3″:6′,7′]cyclohepta[1′,2′:4,5]pyrrolo[2,3-d]pyrimidin-4(5H)-one]	6240	–	–	3440	3300	2710
CC(C)n1c2c(c3c(N)ncnc31)-c1ccc(Cl)cc1C(=O)NC2 [Example 45, 12-amino-3-chloro-8-isopropyl-7,8-dihydrobenzo[c]pyrimido[5′,4′:4,5]pyrrolo[3,2-e]azepin-5(6H)-one]	–	344	814	194	275	557
Nc1ncnc2c1c1c(n2C2CC(F)(F)C2)CCC(O)c2c-1noc2C1CC1 (stereo not shown) [Example 148, 11-amino-3-cyclopropyl-7-(3,3-difluorocyclobutyl)-4,5,6,7-tetrahydroisoxazolo[4″,3″:6′,7′]cyclohepta[1′,2′:4,5]pyrrolo[2,3-d]pyrimidin-4-ol 2,2,2-trifluoroacetate]	216	–	–	183	154	758
CC(C)(O)[C@H]1C[C@@H](n2c3c(c4c(N)ncnc42)-c2noc(C4CC4)c2C(O)CC3)C1 (stereo partly shown) [Example 138, 11-Amino-3-cyclopropyl-7-((1s,3s)-3-(2-hydroxypropan-2-yl)cyclobutyl)-4,5,6,7-tetrahydroisoxazolo[4″,3″:6′,7′]cyclohepta[1′,2′:4,5]pyrrolo[2,3-d]pyrimidin-4-ol 2,2,2-trifluoroacetate]	376	–	–	143	272	646

Now from value to molecule:

IC50 (RET kinase V804M) [nM]	IC50 [1] [nM]	IC50 [2] [nM]	IC50 (RET kinase Wild Type) [nM]	IC50 (G810R mutant RET kinase) [nM]	IC50 (G810S mutant RET kinase) [nM]	Compound
259	155	2160	93	180	300	CC(C)n1c2c(c3c(N)ncnc31)-c1noc(C3CC3)c1C=CC2 [Example 30, 3-cyclopropyl-7-isopropyl-6,7-dihydroisoxazolo[4″,3″:6′,7′]cyclohepta[1′,2′:4,5]pyrrolo[2,3-d]pyrimidin-11-amine]
92	40	181	25	70	87	CC(C)n1c2c(c3c(N)ncnc31)-c1noc(C3CC3)c1C(=O)OC2 [Example 24, 11-amino-3-cyclopropyl-7-isopropyl-6,7-dihydro-4H-isoxazolo[3″,4″:5′,6′]oxepino[4′,3′:4,5]pyrrolo[2,3-d]pyrimidin-4-one]
2210	–	–	571	1320	1320	CC(C)n1c2c(c3c(N)ncnc31)-c1noc(C3CC3)c1CN(C)C2 [Example 31, 3-cyclopropyl-7-isopropyl-5-methyl-4,5,6,7-tetrahydroisoxazolo[4,3-c]pyrimido[5′,4′:4,5]pyrrolo[3,2-e]azepin-11-amine]
1790	–	–	205	354	648	CC(C)n1c2c(c3c(N)ncnc31)-c1noc(C3CC3)c1C(=O)N(CCc1cnn(C)c1)C2 [Example 16, 11-amino-3-cyclopropyl-7-isopropyl-5-(2-(1-methyl-1H-pyrazol-4-yl)ethyl)-6,7-dihydroisoxazolo[4,3-c]pyrimido[5′,4′:4,5]pyrrolo[3,2-e]azepin-4(5H)-one]
692	–	–	153	253	397	CC(C)n1c2c(c3c(N)ncnc31)-c1noc(C3CC3)c1C(=O)N(c1cnn(C)c1)C2 [Example 18, 11-amino-3-cyclopropyl-7-isopropyl-5-(1-methyl-1H-pyrazol-4-yl)-6,7-dihydroisoxazolo[4,3-c]pyrimido[5′,4′:4,5]pyrrolo[3,2-e]azepin-4(5H)-one]
595	–	–	142	308	581	CNC1CCc2c(c3c(N)ncnc3n2C(C)C)-c2noc(C3CC3)c21 (stereo not shown) [Example 27, 3-cyclopropyl-7-isopropyl-N4-methyl-4,5,6,7-tetrahydroisoxazolo[4″,3″:6′,7′]cyclohepta[1′,2′:4,5]pyrrolo[2,3-d]pyrimidine-4,11-diamine]
